Marks after values point to notes of the source that are not given here.
Assays:
KDR = KDR (Homo sapiens, UniProt P35968); assay: ELISA tyrosine kinase inhibition; assay type: biochemical; conditions: average of 3 experiments; read-out: IC50 ± SD, KDR
Protocol: (§1) Phosphorylation of substrate was determined with monoclonal antibody of anti-phosphorylation tyrosine (PY99). Goat anti-mouse IgG marked with HRP was then added, and the degree of phosphorylation of substrate was determined with OPD coloration. At the same time, the control group without tyrosine kinase and control wells of corresponding DMSO concentration were set up. 2 M of H2SO4 was added in 50 μl/well to terminate the reaction. Data was read with adjustable wavelength micro plate enzyme-labeling instrument VERSAmax (Sunnyvale, Calif., U.S.A.), followed by visualization reaction, OD490 nm value was then observed. […] Relative inhibition rate of drugs on tyrosine kinase protein was determined.

c-Kit = c-Kit (Homo sapiens, UniProt P10721); assay: ELISA tyrosine kinase inhibition; assay type: biochemical; conditions: average of 3 experiments; read-out: IC50 ± SD, c-Kit
Protocol: as §1

EGFR1 = EGFR1 (Homo sapiens, UniProt P00533); assay: ELISA tyrosine kinase inhibition; assay type: biochemical
Protocol: (§2) Phosphorylation of substrate was determined with monoclonal antibody of anti-phosphorylation tyrosine (PY99). Goat anti-mouse IgG marked with HRP was then added, and the degree of phosphorylation of substrate was determined with OPD coloration. At the same time, the control group without tyrosine kinase and control wells of corresponding DMSO concentration were set up. 2 M of H2SO4 was added in 50 μl/well to terminate the reaction. Data was read with adjustable wavelength micro plate enzyme-labeling instrument VERSAmax (Sunnyvale, Calif., U.S.A.), followed by visualization reaction, OD490 nm value was then observed.
(§3) Relative inhibition rate of drugs on tyrosine kinase protein was determined.

ErbB2 = ErbB2 (Homo sapiens, UniProt P04626); assay: ELISA tyrosine kinase inhibition; assay type: biochemical
Protocol: as §2, §3

FGFR1 = FGFR1 (Homo sapiens, UniProt P11362); assay: ELISA tyrosine kinase inhibition; assay type: biochemical
Protocol: as §2, §3

Flt1 = Flt1 (Homo sapiens, UniProt P17948); assay: ELISA tyrosine kinase inhibition; assay type: biochemical; conditions: average of 3 experiments; read-out: IC50 ± SD, Flt1
Protocol: as §2, §3

PDGFRβ = PDGFRβ (Homo sapiens, UniProt P09619); assay: ELISA tyrosine kinase inhibition; assay type: biochemical; conditions: average of 3 experiments; read-out: IC50 ± SD, PDGFRβ
Protocol: as §2, §3

c-Src = c-Src (Homo sapiens, UniProt P12931); assay: ELISA tyrosine kinase inhibition; assay type: biochemical; conditions: average of 3 experiments; read-out: IC50 ± SD, c-Src
Protocol: as §2, §3

[1] = test system: human colon cancer Ls174t; assay: Efficacy on human colon cancer Ls174t transplanted in nude mice; conditions: for Weight after Removing Tumor, d0 / TV x ± SD, d0: d0 baseline; for RTV x ± SD / T/C / TV x ± SD, dn: dn 14 days; for Weight after Removing Tumor, dn: dn 14 days after first administration
Protocol: BALB/cA-nude mice, ♀, 5-6 weeks-old, available from Shanghai Slaccas experimental animals limited liability company. […] Rearing environment: SPF grade.
After one week adaption, the experimental animals were subcutaneously inoculated with human colon cancer Ls174t tumor tissues. When the tumors grew to 100-300 mm^3, the animals were randomly divided into several groups in day 0 (d0). […] The volumes of tumors and the weights of mice were measured 2-3 times every week, the data of which were recorded. The equation for the calculation of volume of tumors (V) is: V=½×a×b^2 wherein a and b represent length and width, respectively.

in vivo = conditions: male, Sprague-Dawley, rat, po; for MRT: MRT of compound A; for Tmax: Tmax of compound A
Excerpt: Male Sprague-Dawley (SD) rats (weight: about 250 g, experimental animal certification of fitness: 0006473) were purchased from Shanghai Slaccas experimental animals limited liability company (certification number: SCXK (Hu) 2003-0003). The relevant qualifications and state of health of the SD rats were checked first, and the eligible ones were placed into the clean grade chambers of rats in Shanghai institute of Materia Medica.
I. Analysis Condition of LC/MS/MS
Analysis Condition of Liquid Chromatography
Chromatographic column: Agilent Zorbax SB-C18 column (50 mm×2.1 mm ID);
Column temperature: 25° C.;
Mobile phase: A: H2O—CH3CN (2:98, v/v), B: H2O—CH3CN (10:90, v/v)
A: 25%+B: 75%, constant gradient elution;
Analysis time: 3 minutes.
The light circle was switched to 12/12 hour day/night in the clean grade chambers of rats. Humidity and temperature were 40-60% and 20-24° C., respectively. Every 4 rats were raised in a 36×24×19 cm^3 stainless rat cage. The rats took water freely and were fed special rat food regularly once daily. Only after one week adaption, the rats were used to conduct pharmacokinetics studies. 12 Sprague-Dawley rats were divided into 4 groups, 3 for each group.
The blood samples were collected 0 hour before the administration and 0.083, 0.25, 0.5, 1.0, 2, 4, 6, and 8 hours after the administration. The blood samples were collected at 250˜300 μL at each time point from posterior venous sinus of the eye after respiration anaesthesia with ether (the degree of anaesthesia was highly controlled). The blood was collected into test tubes containing heparin, and then was centrifuged to produce plasma. The obtained plasma was divided into 2 parts (50 μL for each part) and stored at −70° C. until analysis. […] After experiments, euthanasia was performed with CO2 gas.
Pharmacokinetics parameters of animal experiment of each group were calculated using InnaPhase Kinetica™ software (America).

[2] = concentration increased to 10^4 nM
[3] = 50 mg/kg p.o. once daily d0-d13
[4] = 100 mg/kg p.o. once daily d0-d13
[5] = 200 mg/kg p.o. once daily d0-d13

Chain of ErbB2 (P04626 23-1255, species assumed): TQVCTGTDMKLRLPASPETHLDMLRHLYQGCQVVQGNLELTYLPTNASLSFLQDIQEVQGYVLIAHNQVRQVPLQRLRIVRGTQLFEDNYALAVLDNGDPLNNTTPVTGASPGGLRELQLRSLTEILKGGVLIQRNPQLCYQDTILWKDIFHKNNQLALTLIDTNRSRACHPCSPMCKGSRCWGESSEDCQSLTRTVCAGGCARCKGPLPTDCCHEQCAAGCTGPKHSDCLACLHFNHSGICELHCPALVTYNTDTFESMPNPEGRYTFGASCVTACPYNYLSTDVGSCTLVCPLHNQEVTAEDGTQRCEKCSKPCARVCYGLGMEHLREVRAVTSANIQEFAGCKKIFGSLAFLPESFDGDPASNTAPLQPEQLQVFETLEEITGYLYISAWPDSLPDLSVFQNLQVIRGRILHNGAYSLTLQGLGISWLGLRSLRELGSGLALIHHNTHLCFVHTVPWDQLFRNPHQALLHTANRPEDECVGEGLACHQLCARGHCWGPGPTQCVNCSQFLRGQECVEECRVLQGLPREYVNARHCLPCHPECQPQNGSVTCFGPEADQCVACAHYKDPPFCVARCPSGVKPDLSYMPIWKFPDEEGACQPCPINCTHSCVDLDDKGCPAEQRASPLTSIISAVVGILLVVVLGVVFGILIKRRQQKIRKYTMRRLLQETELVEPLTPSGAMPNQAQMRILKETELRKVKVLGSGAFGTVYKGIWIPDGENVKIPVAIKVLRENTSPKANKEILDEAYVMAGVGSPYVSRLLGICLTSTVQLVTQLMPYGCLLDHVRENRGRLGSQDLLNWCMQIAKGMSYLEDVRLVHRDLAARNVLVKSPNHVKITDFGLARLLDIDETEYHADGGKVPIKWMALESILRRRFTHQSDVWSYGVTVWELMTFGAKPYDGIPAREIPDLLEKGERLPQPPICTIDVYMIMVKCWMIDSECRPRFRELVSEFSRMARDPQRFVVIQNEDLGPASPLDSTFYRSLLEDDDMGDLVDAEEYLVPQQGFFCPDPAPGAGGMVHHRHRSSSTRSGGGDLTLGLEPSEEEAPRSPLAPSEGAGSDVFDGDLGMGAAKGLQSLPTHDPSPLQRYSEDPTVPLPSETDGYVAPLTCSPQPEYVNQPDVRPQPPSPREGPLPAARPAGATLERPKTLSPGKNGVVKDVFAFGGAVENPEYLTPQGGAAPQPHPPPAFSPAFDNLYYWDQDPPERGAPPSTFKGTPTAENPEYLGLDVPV
Chain of FGFR1 (P11362 22-822, species assumed): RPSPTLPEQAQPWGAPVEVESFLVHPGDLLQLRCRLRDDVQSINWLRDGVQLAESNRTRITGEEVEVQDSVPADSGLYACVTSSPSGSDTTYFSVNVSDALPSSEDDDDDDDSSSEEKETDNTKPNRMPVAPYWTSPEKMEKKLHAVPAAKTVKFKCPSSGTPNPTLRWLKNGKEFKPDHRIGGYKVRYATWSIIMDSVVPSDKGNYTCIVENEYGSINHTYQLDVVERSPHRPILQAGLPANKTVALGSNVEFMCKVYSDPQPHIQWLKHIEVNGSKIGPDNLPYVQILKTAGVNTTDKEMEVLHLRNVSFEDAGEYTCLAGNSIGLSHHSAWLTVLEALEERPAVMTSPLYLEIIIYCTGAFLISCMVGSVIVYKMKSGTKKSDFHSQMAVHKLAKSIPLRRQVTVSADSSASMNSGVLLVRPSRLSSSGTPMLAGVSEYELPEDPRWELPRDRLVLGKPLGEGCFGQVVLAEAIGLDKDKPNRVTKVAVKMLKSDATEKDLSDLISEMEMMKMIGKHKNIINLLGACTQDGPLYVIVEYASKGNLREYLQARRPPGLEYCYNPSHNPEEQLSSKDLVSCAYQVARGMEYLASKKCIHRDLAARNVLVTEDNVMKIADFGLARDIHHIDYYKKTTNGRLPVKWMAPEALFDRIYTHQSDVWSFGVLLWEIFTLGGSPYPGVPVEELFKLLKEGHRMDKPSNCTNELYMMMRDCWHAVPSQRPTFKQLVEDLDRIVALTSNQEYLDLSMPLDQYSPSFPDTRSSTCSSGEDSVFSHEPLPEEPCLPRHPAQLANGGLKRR
Chain of EGFR1 (P00533 25-1210): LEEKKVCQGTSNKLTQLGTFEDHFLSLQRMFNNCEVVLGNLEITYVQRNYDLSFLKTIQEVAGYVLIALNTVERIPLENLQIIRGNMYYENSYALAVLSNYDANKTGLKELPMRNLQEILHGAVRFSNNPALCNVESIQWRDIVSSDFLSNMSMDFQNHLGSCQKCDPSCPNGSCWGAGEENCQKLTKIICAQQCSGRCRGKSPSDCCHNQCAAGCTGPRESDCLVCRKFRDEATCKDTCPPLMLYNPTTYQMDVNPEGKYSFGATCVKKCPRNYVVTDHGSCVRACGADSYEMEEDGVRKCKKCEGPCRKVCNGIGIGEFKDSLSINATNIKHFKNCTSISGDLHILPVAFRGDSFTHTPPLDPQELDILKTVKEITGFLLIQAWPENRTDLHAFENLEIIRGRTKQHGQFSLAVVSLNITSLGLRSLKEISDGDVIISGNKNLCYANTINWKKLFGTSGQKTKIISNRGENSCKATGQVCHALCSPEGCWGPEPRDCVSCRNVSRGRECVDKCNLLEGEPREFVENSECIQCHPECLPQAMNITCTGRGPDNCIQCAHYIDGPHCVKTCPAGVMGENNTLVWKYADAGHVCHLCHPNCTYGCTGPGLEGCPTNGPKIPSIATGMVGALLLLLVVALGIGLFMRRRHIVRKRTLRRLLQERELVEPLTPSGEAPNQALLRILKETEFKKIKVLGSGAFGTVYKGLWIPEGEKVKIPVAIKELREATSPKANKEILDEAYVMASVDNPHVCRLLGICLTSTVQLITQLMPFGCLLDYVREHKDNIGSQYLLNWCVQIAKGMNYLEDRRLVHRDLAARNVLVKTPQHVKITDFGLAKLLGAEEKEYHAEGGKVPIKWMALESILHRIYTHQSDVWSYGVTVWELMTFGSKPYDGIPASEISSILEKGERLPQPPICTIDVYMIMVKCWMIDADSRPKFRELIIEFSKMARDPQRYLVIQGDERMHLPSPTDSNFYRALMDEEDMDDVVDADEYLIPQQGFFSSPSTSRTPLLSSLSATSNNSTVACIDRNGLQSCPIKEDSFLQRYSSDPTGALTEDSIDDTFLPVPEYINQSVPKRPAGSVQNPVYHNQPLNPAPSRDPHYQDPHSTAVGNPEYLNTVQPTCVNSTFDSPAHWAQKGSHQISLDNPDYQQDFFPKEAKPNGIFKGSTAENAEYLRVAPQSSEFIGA
Chain of Flt1 (P17948 27-1338, species assumed): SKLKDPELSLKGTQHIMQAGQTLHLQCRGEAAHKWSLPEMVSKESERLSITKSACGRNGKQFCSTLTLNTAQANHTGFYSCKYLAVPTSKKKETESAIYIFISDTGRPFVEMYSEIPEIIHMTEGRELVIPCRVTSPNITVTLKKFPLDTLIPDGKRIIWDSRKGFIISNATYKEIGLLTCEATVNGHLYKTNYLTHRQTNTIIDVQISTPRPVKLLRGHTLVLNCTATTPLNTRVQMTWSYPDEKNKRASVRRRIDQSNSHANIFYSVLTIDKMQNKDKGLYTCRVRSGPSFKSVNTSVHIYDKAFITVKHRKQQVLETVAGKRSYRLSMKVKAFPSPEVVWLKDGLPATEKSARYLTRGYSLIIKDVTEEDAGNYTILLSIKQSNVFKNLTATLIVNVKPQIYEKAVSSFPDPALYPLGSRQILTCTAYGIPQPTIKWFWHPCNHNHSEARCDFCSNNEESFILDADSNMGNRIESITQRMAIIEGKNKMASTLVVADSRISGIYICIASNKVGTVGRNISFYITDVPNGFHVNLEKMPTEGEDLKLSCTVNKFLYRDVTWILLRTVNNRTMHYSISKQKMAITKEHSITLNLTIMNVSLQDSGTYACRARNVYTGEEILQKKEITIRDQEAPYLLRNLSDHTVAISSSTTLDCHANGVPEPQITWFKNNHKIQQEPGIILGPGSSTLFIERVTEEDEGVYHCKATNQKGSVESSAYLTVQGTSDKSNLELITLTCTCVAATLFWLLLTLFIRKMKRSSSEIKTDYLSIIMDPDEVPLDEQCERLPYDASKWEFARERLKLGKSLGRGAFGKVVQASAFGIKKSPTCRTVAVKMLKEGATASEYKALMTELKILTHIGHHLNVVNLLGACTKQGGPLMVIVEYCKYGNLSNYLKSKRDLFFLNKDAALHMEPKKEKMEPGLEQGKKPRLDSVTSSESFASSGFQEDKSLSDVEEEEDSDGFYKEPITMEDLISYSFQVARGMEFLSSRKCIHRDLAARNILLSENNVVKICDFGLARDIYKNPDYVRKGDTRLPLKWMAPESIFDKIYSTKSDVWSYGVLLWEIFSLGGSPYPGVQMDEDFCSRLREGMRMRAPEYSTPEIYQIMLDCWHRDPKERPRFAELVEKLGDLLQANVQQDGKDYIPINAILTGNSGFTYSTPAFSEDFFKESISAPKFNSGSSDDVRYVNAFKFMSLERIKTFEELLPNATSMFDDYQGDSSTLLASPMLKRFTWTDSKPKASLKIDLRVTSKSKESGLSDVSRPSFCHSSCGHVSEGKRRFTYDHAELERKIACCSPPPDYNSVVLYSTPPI
Chain of c-Src (P12931 whole entry, species assumed): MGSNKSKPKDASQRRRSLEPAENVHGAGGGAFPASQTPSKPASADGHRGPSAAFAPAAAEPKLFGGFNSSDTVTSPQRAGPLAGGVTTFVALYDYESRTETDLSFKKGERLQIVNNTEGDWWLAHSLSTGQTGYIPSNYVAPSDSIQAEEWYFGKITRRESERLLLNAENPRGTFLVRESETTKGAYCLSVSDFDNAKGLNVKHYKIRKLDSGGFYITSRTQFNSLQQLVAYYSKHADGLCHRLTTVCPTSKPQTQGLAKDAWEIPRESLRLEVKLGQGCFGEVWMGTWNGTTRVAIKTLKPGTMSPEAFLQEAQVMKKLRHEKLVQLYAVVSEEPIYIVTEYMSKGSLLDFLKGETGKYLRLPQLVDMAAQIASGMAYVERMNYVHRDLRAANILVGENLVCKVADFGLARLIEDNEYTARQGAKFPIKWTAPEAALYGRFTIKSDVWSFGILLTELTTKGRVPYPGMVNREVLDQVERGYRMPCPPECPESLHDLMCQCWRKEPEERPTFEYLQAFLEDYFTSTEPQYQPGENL

## N#CC1(c2ccc(NC(=O)c3cccnc3NCc3ccncc3)cc2)CCCC1 [Mesylate of compound A]
KDR
  IC50: 2.43 nM
c-Kit
  IC50: 420 nM
EGFR1; average of 3 experiments, read-out: IC50 ± SD, EGFR1
  IC50: > 10000 nM
EGFR1; [2]
  inhibition on EGFR1: no inhibition
ErbB2; average of 3 experiments, read-out: IC50 ± SD, ErbB2
  IC50: > 10000 nM
ErbB2; [2]
  inhibition on ErbB2: no inhibition
FGFR1; average of 3 experiments, read-out: IC50 ± SD, FGFR1
  IC50: > 10000 nM
FGFR1; [2]
  inhibition on FGFR1: no inhibition
Flt1
  IC50: 70.1 nM
PDGFRβ
  IC50: 537 nM
c-Src
  IC50: 349 nM
[1]; [3]
  Weight after Removing Tumor, d0: 19.1 g
  RTV x ± SD: 9.8 ± 3.0
  T/C: 79.7%
  TV x ± SD, dn: 1452 ± 149
  Weight after Removing Tumor, dn: 16.8 g
[1]; 50 mg/kg p.o.
  TV x ± SD, d0: 155 ± 33
[1]; [4]
  Weight after Removing Tumor, d0: 19.0 g
  RTV x ± SD: 6.4 ± 3.1
  T/C: 52.0^a %
  TV x ± SD, dn: 931 ± 196
  Weight after Removing Tumor, dn: 18.5 g
[1]; 100 mg/kg p.o.
  TV x ± SD, d0: 161 ± 44
[1]; [5]
  Weight after Removing Tumor, d0: 18.6 g
  RTV x ± SD: 2.0 ± 0.9
  TV x ± SD, dn: 310 ± 114
  Weight after Removing Tumor, dn: 18.5 g
[1]; 200 mg/kg p.o. once daily d0-d13, listed as Mesylate of Compound A
  T/C: 16.3^a %
[1]; 200 mg/kg p.o. once daily d0-d13, listed as mesylate of compound A
  T/C: 16.3%
[1]; 200 mg/kg p.o.
  TV x ± SD, d0: 158 ± 20
[1]; 400 mg/kg
  efficacy at 400 mg/kg: did not increase significantly
[1]; Mus musculus, LS174T, read-out: ED50 on colon cancer Ls174t
  ED50: 97.2 mg/kg
[1]; mouse, in vivo
  tolerance at 400 mg/kg: could be tolerated by mice
In vivo; 1 mmol/kg, AUC0→8 h Mol dose
  AUC(0-t): 17200 ± 6980 ng·h/mL
In vivo; 20 mg/kg, AUC0→8 h of compound A, Mean ± SD
  AUC(0-t): 697 ± 283 ng·h/mL
In vivo; 20 mg/kg, Blood Concentration of compound A, 0 h
  concentration at 0 h: 0 ng/mL
In vivo; 20 mg/kg, Blood Concentration of compound A, 4 h
  concentration at 4 h: 30.5 ng/mL
In vivo; 20 mg/kg, Blood Concentration of compound A, 8 h
  concentration at 8 h: 29.9 ng/mL
In vivo; 20 mg/kg, Cmax of compound A, Mean ± SD
  Cmax: 489 ± 296 ng/mL
In vivo; 20 mg/kg
  MRT: 70.8 min
  Tmax: 15 min
In vivo; 20 mg/kg, Mean ± SD
  MRT: 98.4 ± 28.8 min
  Tmax: 19.8 ± 8.4 min
In vivo; 20 mg/kg, T1/2 of compound A, Mean ± SD
  half-life: 52.2 ± 23.4 min

— US8362256B2, “Salts of N-[4-(1-cyanocyclopentyl)phenyl]-2-(4-pyridylmethyl)amino-3-pyridinecarboxamide” (Jiangsu Hengrui Medicine Co. Ltd., priority 2008, dated 2013)
